The results in this text go back to US12145913B2, “Inhibition of Olig2 activity” (Curtana Pharmaceuticals, Inc., priority 2016, dated 2024).

Molecules are shown by their SMILES. A value given as a limit tells only on which side of the number the result lay.

The assay concerns GBM8 human glioblastoma cells. As to the kind of experiment: GBM8 viability assay (Cell Titer Glo). The assay is classed as cell-based. The settings on record: 72 h, Table 1, 3 days incubation, luminescence. Here is the method: Cell culture medium was prepared from a NSA proliferation kit (Neurocult) and NeuroCult supplements (Stemcell Tech Cat. #05751) and treated with 20 μL of 10 μg/mL rh EGF, 10 μL of 10 μg/mL rh bFGF and 10 μL of 0.2% Heparin. In this medium, human glioblastoma cells were cultured in ultra-low attachment tissue culture flasks until 1×10^6 cells ml was achieved (GBM4 and GBM8 are distinct neurosphere cell cultures derived from these human patient tissues). GBM4 and GBM8 cells were dissociated and 10 mL of media containing 4000 human glioblastoma cells per 90 μL were transferred to an ultra-low binding 96-well plate and incubated at 37° C. overnight. On the following day, 10 μL of a 1% DMSO solution of test compound in assay medium was added to wells containing the cell suspension and the mixture incubated at 37° C. for 3 days. At this time, the plate was removed from the incubator and allowed to reach room temperature. After about 30 minutes, 50 μL of Cell Titer Glo solution was added to each well and the plate shaken for 1 minute at low speed. After 10 minutes luminescence was recorded using a Tecan Safire2 reader.
Reduction in luminescence compared to DMSO only control wells was used to determine the percentage inhibition of cell growth. IC50s were calculated using the % inhibition of luminescence for serial dilutions of compounds fitted to a 4-parameter fit within the Prism (San Diego) curve fitting program. Tables 1 (compounds 3-188) and 2 (compounds 190-212) show the GBM4 IC50 and GBM8 IC50 for compounds described herein.
For orientation: In ATP-based viability assays light output follows the ATP content of the culture.
On to `CNCCCNc1cc(C)nc(NC(=O)Nc2ccc3ccccc3c2)n1` [Compound 31, 1-(4-methyl-6-((3-(methylamino)propyl)amino)pyrimidin-2-yl)-3-(naphthalen-2-yl)urea], for which the IC50 is < 500 nM.

In the case of `Cc1cc(NCC2CCCNC2)nc(NC(=O)Nc2ccc3ccccc3c2)n1` (stereo not drawn) [Compound 32, 1-(4-methyl-6-((piperidin-3-ylmethyl)amino)pyrimidin-2-yl)-3-(naphthalen-2-yl)urea], the IC50 is < 500 nM.

Take `CNCCCCNc1cc(C)nc(NC(=O)Nc2ccc3ccccc3c2)n1` [Compound 33, 1-(4-methyl-6-((4-(methylamino)butyl)amino)pyrimidin-2-yl)-3-(naphthalen-2-yl)urea]: the IC50 was < 500 nM.

As for `CC(=O)NCCCNc1cc(C)nc(NC(=O)Nc2ccc3ccccc3c2)n1` [Compound 34, N-(3-((6-methyl-2-(3-(naphthalen-2-yl)ureido)pyrimidin-4-yl)amino)propyl)acetamide], the IC50 was < 500 nM.

For `Cc1cc(NCCCNS(C)(=O)=O)nc(NC(=O)Nc2ccc3ccccc3c2)n1` [Compound 37, N-(3-((6-methyl-2-(3-(naphthalen-2-yl)ureido)pyrimidin-4-yl)amino)propyl)methanesulfonamide], the IC50 was < 500 nM.

Compound `Cc1cc(NCCNC(=O)C(F)(F)F)nc(NC(=O)Nc2ccc3ccccc3c2)n1` [Compound 38, 2,2,2-trifluoro-N-(2-((6-methyl-2-(3-(naphthalen-2-yl)ureido)pyrimidin-4-yl)amino)ethyl)acetamide] had an IC50 of 500 to 5000 nM.

`Cc1cc(NCCC(=O)N(C)C)nc(NC(=O)Nc2ccc3ccccc3c2)n1` [Compound 42, N,N-dimethyl-3-((6-methyl-2-(3-(naphthalen-2-yl)ureido)pyrimidin-4-yl)amino)propanamide] came in with an IC50 of 500 to 5000 nM.

Take `CNC(=O)CCNc1cc(C)nc(NC(=O)Nc2ccc3ccccc3c2)n1` [Compound 43, N-methyl-3-((6-methyl-2-(3-(naphthalen-2-yl)ureido)pyrimidin-4-yl)amino)propanamide]: the IC50 is < 500 nM.

Take `CONc1cc(C)nc(NC(=O)Nc2ccc3ccccc3c2)n1` [Compound 44, 1-(4-(methoxyamino)-6-methylpyrimidin-2-yl)-3-(naphthalen-2-yl)urea]: the IC50 was < 500 nM.

Regarding `Cc1cc(NO)nc(NC(=O)Nc2ccc3ccccc3c2)n1` [Compound 45, 1-(4-(hydroxyamino)-6-methylpyrimidin-2-yl)-3-(naphthalen-2-yl)urea], the IC50 was < 500 nM.

In the case of `Cc1cc(N)nc(NC(=O)Nc2ccc3ccccc3c2)n1` [Compound 47, 1-(4-amino-6-methylpyrimidin-2-yl)-3-(naphthalen-2-yl)urea], the IC50 is < 500 nM.

As for `Cc1cc(NCCCN(C)C)nc(NC(=O)Nc2ccc3cnccc3c2)n1` [Compound 50, 1-(4-((3-(dimethylamino)propyl)amino)-6-methylpyrimidin-2-yl)-3-(isoquinolin-6-yl)urea], the IC50 was < 500 nM.

The compound `Cc1cc(NCCN(C)C)nc(NC(=O)Nc2ccc3cnccc3c2)n1` [Compound 51, 1-(4-((2-(dimethylamino)ethyl)amino)-6-methylpyrimidin-2-yl)-3-(isoquinolin-6-yl)urea] returned an IC50 of 500 to 5000 nM.

Turning to `Cc1cc(NCCN)nc(NC(=O)Nc2ccc3cnccc3c2)n1` [Compound 52, 1-(4-((2-aminoethyl)amino)-6-methylpyrimidin-2-yl)-3-(isoquinolin-6-yl)urea], the IC50 was in the range of 500 to 5000 nM.

Regarding `Cc1cc(NCCCN)nc(NC(=O)Nc2ccc3cnccc3c2)n1` [Compound 53, 1-(4-((3-aminopropyl)amino)-6-methylpyrimidin-2-yl)-3-(isoquinolin-6-yl)urea], the IC50 was in the range of 500 to 5000 nM.

On to `CCNc1cc(C)nc(NC(=O)Nc2ccc3cnccc3c2)n1` [Compound 54], for which the IC50 was < 500 nM.

Regarding `CNc1cc(C)nc(NC(=O)Nc2ccc3cnccc3c2)n1` [Compound 55], the IC50 was < 500 nM.

On to `CCCCNc1cc(C)nc(NC(=O)Nc2ccc3cnccc3c2)n1` [Compound 56], for which the IC50 was < 500 nM.

As for `COCCNc1cc(C)nc(NC(=O)Nc2ccc3cnccc3c2)n1` [Compound 57], the IC50 is < 500 nM.

Take `CNC(=O)CNc1cc(C)nc(NC(=O)Nc2ccc3cnccc3c2)n1` [Compound 58]: the IC50 is < 500 nM.

In turn, `Cc1cc(NCC(=O)N(C)C)nc(NC(=O)Nc2ccc3cnccc3c2)n1` [Compound 59] yielded an IC50 of 500 to 5000 nM.

On to `Cc1cc(NCCO)nc(NC(=O)Nc2ccc3cnccc3c2)n1` [Compound 60, 1-(4-((2-hydroxyethyl)amino)-6-methylpyrimidin-2-yl)-3-(isoquinolin-6-yl)urea], for which the IC50 is < 500 nM.

As for `CONc1cc(C)nc(NC(=O)Nc2ccc3cnccc3c2)n1` [Compound 61, 1-(isoquinolin-6-yl)-3-(4-(methoxyamino)-6-methylpyrimidin-2-yl)urea], the IC50 was < 500 nM.

Consider `Cc1cc(NO)nc(NC(=O)Nc2ccc3cnccc3c2)n1` [Compound 62, 1-(4-(hydroxyamino)-6-methylpyrimidin-2-yl)-3-(isoquinolin-6-yl)urea], for which the IC50 was < 500 nM.

On to `CNCCCNc1cc(C)nc(NC(=O)Nc2ccc3cnccc3c2)n1` [Compound 64, 1-(isoquinolin-6-yl)-3-(4-methyl-6-((3-(methylamino)propyl)amino)pyrimidin-2-yl)urea], for which the IC50 is < 500 nM.

Turning to `CNCCCCNc1cc(C)nc(NC(=O)Nc2ccc3cnccc3c2)n1` [Compound 65, 1-(isoquinolin-6-yl)-3-(4-methyl-6-((4-(methylamino)butyl)amino)pyrimidin-2-yl)urea], the half-inhibitory concentration (IC50) was < 500 nM.

For the compound `CC(=O)NCCCNc1cc(C)nc(NC(=O)Nc2ccc3cnccc3c2)n1` [Compound 66, N-(3-((2-(3-(isoquinolin-6-yl)ureido)-6-methylpyrimidin-4-yl)amino)propyl)acetamide], the IC50 was < 500 nM.

On to `CC(=O)NCCNc1cc(C)nc(NC(=O)Nc2ccc3cnccc3c2)n1` [Compound 67, N-(2-((2-(3-(isoquinolin-6-yl)ureido)-6-methylpyrimidin-4-yl)amino)ethyl)acetamide], for which the IC50 was < 500 nM.

In the case of `Cc1cc(NCCCNS(C)(=O)=O)nc(NC(=O)Nc2ccc3cnccc3c2)n1` [Compound 71, N-(3-((2-(3-(isoquinolin-6-yl)ureido)-6-methylpyrimidin-4-yl)amino)propyl)methanesulfonamide], the IC50 is < 500 nM.

Turning to `Cc1cc(NCCNS(C)(=O)=O)nc(NC(=O)Nc2ccc3cnccc3c2)n1` [Compound 75, N-(2-((2-(3-(isoquinolin-6-yl)ureido)-6-methylpyrimidin-4-yl)amino)ethyl)methanesulfonamide], the IC50 was < 500 nM.

`Cc1cc(NCCC(=O)N(C)C)nc(NC(=O)Nc2ccc3cnccc3c2)n1` [Compound 76, 3-((2-(3-(isoquinolin-6-yl)ureido)-6-methylpyrimidin-4-yl)amino)-N,N-dimethylpropanamide] had an IC50 of 500 to 5000 nM.

On to `CNC(=O)CCNc1cc(C)nc(NC(=O)Nc2ccc3cnccc3c2)n1` [Compound 77, 3-((2-(3-(isoquinolin-6-yl)ureido)-6-methylpyrimidin-4-yl)amino)-N-methylpropanamide], for which the IC50 was < 500 nM.

For `Cc1cc(NCCCN(C)C)nc(NC(=O)Nc2ccc3occc3c2)n1` [Compound 80, 1-(benzofuran-5-yl)-3-(4-((3-(dimethylamino)propyl)amino)-6-methylpyrimidin-2-yl)urea], the IC50 is < 500 nM.

For orientation: IC50 means the concentration that inhibits the measured activity by half.
